{"source": "patent US20230416196A1", "about": "“DIMER OF BIGUANIDINES AND THEIR THERAPEUTIC USES” (INSTITUT CURIE, priority 2020, published 2023)", "key": {"[1]": {"test_system": "U937 cells", "experiment": "Cell viability assay (CellTiter-Blue) on lymphoma cell line U937", "type": "cell-based", "details": "Homo sapiens, U-937, 72 h treatment", "method": "Cell culture. U-937 cells were grown in an incubator equilibrated at 37° C. with 5% CO2, grown to confluence and split with Trypsin/EDTA (Gibco, […]01) once or twice a week according to confluence. U-937 (ATCC, HTB-132) were cultured in RPMI 1640 GLUTAMAX (ThermoFisher Scientific, 61870044) supplemented with 10% Fetal Bovine Serum (FBS, Gibco, 10270-106) and Penicillin-Streptomycin mixture (BioWhittaker/Lonza, DE17-602E). […] Peripheral blood samples were collected from distinct healthy donors (Etablissement Français du Sang). Pan monocytes were isolated by negative magnetic sorting using microbeads according to the manufacturer's instructions (Miltenyi Biotec, 130-096-537), and cultured in RPMI 1640 supplemented with glutamine (Thermo Fisher Scientific, 61870010), 10% fetal bovine serum and exposed to granulocyte-macrophage colony-stimulating factor (GM-CSF, Miltenyi Biotec, 130-093-866, 100 ng/mL) to induce differentiation into macrophages (MDM). […] Cell viability assay (IC50). Cell viability assay was carried out by plating 1000 cells/well in 96-well plates. Cells were treated for 72 h in a range between to 25 nM and […] using serial dilutions. The inventors followed the manufacturer's protocol. In brief, CellTiter-Blue® reagent (G8081, Promega) was added after 72 h treatment and cells were incubated for 3 h before recording fluorescence intensities (λex. 560/20 nm; λem. 590/10 nm) using a Perkin Elmer Wallac 1420 Victor2 Microplate Reader."}, "[2]": {"test_system": "mice challenged by cecal ligation and puncture", "experiment": "Murine model of sepsis using cecal ligation and puncture (CLP)", "type": "in vivo, BALB/c mice", "method": "Murine model of sepsis using cecal ligation and puncture. All animal-related research is conducted in accordance with 2010/63/EU and National legislation regulating the use of laboratory animals in scientific research and for other purposes (Official Gazette 55/13). An Institutional Committee on Animal Research Ethics (CEEA-047) oversees that animal-related procedures are not compromising the animal welfare. 9 weeks-old male BALB/c mice were used for these experiments. Animals were anesthetized by isoflurane (Forene). After abdominal incision, the cecum was ligated, punctured with a gauge needle (25G or 21G), and a small amount of fecal matter was released. After the cecum was returned to the abdomen, the abdominal cavity was closed in two layers and the mice were resuscitated with 30 mL/kg body weight of saline (0.9% NaCl) administered subcutaneously. For the sham group, after abdominal incision, the cecum was manipulated but was neither ligated nor punctured. After the cecum was returned to the abdomen, the abdominal cavity was closed in two layers and the mice were resuscitated with 30 mL/kg body weight of saline administered subcutaneously. LCC-12 (0.3 mg/kg, IP) was administered at 0.3 mg/kg dose 4 h, 24 h, 48 h, 72 h and 96 h following CLP creation. Mortality incidence was monitored every 2 h up to 120 h (except from 10 pm to 6 am) post CLP creation. Dexamethasone was administered intraperitoneally at 1 mg/kg dose 5-minutes prior CLP creation."}, "[3]": {"test_system": "MCF7, FC1242 and DU-145 cells", "experiment": "Cell viability in epithelial versus mesenchymal state (TGF-β or OSM induced EMT)", "type": "cell-based, human, mouse", "details": "EMT induced with TGF-β or OSM; FIG. 7", "method": "Cell viability assay (IC50). Cell viability assay was carried out by plating 1000 cells/well in 96-well plates. Cells were treated for 72 h in a range between to 25 nM and […] using serial dilutions. The inventors followed the manufacturer's protocol. In brief, CellTiter-Blue® reagent (G8081, Promega) was added after 72 h treatment and cells were incubated for 3 h before recording fluorescence intensities (λex. 560/20 nm; λem. 590/10 nm) using a Perkin Elmer Wallac 1420 Victor2 Microplate Reader.\nCell culture. MCF7 (ATCC) cells, DU-145 (ATCC) cells and FC1245 cells were cultured in Dulbecco's Modified Eagle Medium GlutaMAX (DMEM, ThermoFisher Scientific, 61965059) supplemented with 10% Fetal Bovine Serum (FBS, Gibco, 10270-106) and Penicillin-Streptomycin mixture (BioWhittaker/Lonza, DE17-602E) unless stated otherwise. Primary lung circulating tumor cells (Celprogen, 36107-34CTC, Lot 219411) were grown using stem cell complete media (Celprogen, M36102-29PS) until the third passage. Circulating cancer cells were grown in stem cell ECM T75-flasks (Celprogen, E36102-29-T75) and ECM 6-well plates (Celprogen, E36102-29-6Well). […]"}}, "data": [{"smiles": "N=C(N)NC(=N)NCCCCCCCCCCCCNC(=N)NC(=N)N", "note": "[LCC-12, lipophilic copper clamp C12]", "values": [{"measurement": "IC50", "setting": "[1]", "result": 2, "unit": "µM"}, {"measurement": "survival in CLP sepsis", "setting": "[2]; 21G needle, LCC-12 0.3 mg/kg IP, FIG. 5A", "result": "delayed death and increased survival rate"}, {"measurement": "body weight loss in CLP-induced sublethal sepsis", "setting": "[2]; 25G needle, LCC-12 0.3 mg/kg IP, FIG. 5C", "result": "reduced body weight loss"}, {"measurement": "overall gravity score of symptoms in CLP-induced sublethal sepsis", "setting": "[2]; 25G needle, LCC-12 0.3 mg/kg IP, FIG. 5D", "result": "improved the overall gravity score of symptoms"}, {"measurement": "symptoms of sepsis compared to dexamethasone", "setting": "[2]; CLP, throughout the treatments", "result": "considerably attenuated the symptoms of sepsis compared to dexamethasone"}, {"measurement": "IC50-values in mesenchymal state compared to epithelial counterpart", "setting": "[3]", "result": "lower IC50-values in cells in the mesenchymal state compared to the epithelial counterpart"}]}]}
